Source: publication PMC7748285, “A small molecule that mitigates bacterial infection disrupts Gram-negative cell membranes and is inhibited by cholesterol and neutral lipids” (PLoS Pathogens, 2020)

Target: T1, AcrB (Escherichia coli, UniProt P31224)
T1 construct: 4·His tag at the C-terminus
Experiment: isothermal titration calorimetry (ITC) with purified AcrB, […]°C
Format: binding

T1 sequence (P31224 whole entry): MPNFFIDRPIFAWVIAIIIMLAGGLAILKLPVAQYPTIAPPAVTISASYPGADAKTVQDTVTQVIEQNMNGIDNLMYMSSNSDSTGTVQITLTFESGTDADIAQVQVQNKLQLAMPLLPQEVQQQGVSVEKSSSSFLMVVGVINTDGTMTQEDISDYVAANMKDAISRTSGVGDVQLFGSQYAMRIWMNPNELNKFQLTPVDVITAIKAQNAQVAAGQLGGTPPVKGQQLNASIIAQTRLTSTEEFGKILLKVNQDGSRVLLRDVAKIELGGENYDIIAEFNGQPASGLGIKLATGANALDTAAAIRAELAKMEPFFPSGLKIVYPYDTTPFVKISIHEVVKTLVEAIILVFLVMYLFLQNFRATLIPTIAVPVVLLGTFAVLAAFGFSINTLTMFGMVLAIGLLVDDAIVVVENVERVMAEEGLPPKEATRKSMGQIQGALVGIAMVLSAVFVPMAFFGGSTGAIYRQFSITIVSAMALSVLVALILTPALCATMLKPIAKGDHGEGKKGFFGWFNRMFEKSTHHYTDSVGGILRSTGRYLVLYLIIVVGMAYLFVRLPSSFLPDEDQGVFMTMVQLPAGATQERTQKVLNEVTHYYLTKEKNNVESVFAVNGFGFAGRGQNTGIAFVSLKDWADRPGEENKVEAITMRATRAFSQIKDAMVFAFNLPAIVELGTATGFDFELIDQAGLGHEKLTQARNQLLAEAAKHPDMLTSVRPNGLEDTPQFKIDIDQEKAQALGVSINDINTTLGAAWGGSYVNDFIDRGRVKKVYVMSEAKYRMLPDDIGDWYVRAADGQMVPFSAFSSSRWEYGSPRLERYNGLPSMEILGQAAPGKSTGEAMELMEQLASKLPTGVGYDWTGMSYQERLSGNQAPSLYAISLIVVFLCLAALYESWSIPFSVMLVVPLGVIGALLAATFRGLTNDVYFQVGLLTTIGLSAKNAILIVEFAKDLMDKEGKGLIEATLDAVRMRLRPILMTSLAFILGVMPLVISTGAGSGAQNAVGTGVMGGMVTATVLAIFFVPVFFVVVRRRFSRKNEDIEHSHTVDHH

## OC(COc1ccc(C23CC4CC(CC(C4)C2)C3)cc1)CN1CCCCC1 (stereo not shown) [JD1]
  Kd: 520 nM
